The test relates to Nematospiroides dubius. Description: Evaluation (Efficacy) Test in Mice, Nematospiroides dubius. It is filed as in vivo. As to conditions: for inhibition in vivo at 0.025 %: 0.025 % diet. An excerpt: The primary target parasite of this test is Nematospiroides dubius (Family: Heligmosomidae), which is phylogenetically related to certain economically important parasites of domestic and farm animals. Mice are orally inoculated with 20 to 30 infective N. dubius larvae. Mixed infections are obtained by subsequent inoculation with Aspicularis tetraptera and Hymenolepis nana. Eighteen days after inoculation the mice are divided into groups of four. Each group receives one compound at a specified dose rate, either as a single gavage dose or fed continually in the feed. Four groups of five mice each are utilized as infected, untreated controls. […] Those mice receiving single oral doses (SOD) or a single subcutaneous injection (Sc) of 5 mg./kg. to 100 mg./kg. of animal body weight of the compound under test are treated 22 days after inoculation. Eight days after start of treatment (drug diet) and 4 days post treatment (single dose SOD or Sc), the mice are necropsied, the worms recovered and counted. Percent efficacy for Nematospiroides is calculated using the formula: % Efficacy Equals [formula]
The diet used in the test procedures is a standard commercial mouse chow containing meat and bone meal, dried skimmed milk, wheat germ meal, fish meal, animal liver meal, dried beet pulp, ground extended corn, oat middlings, soybean meal, dehydrated alfalfa meal, cane molasses. animal fat preserved with BHA, vitamin B-12 supplement, calcium panthotenate, choline chloride, folic acid, riboflavin supplement, brewer's dried yeast, thiamine, niacin, vitamin A supplement, D activated plant sterol, vitamin E supplement, dicalcium phosphate, iodized salt, ferric ammonium citrate, iron oxide, manganous oxide, cobalt carbonate, copper oxide and zinc oxide; and the desired level of test compound.
When the drug is administered as a single oral dose, the drug is weighed and suspended in 0.2% agar, thoroughly mixed and orally introduced at the required volume.

Where [1] appears, read: Heligmosomoides polygyrus, po, single oral dose, read-out: % Efficacy N.d.
Setting [2] is: Heligmosomoides polygyrus, po, 168 h, drug diet, 7 days, read-out: % Efficacy N.d.
Where [3] appears, read: Heligmosomoides polygyrus, po, 168 h, drug diet, 0.006 % diet, 7 days, read-out: % Efficacy N.d.
The mark [4] stands for this setting: Heligmosomoides polygyrus, po, 168 h, drug diet, 0.0125 % diet, 7 days, read-out: % Efficacy N.d.

The results in this text go back to patent US3957978A, “Phosphonium anti-parasitics” (American Cyanamid Company, priority 1975, dated 1976).

With `C(=P(c1ccccc1)(c1ccccc1)c1ccccc1)[P+](c1ccccc1)(c1ccccc1)c1ccccc1.[Cl-]` [Type II, R1 Phenyl, X Cl, Triphenyl[(triphenylphosphoranylidene)methyl]-phosphonium Chloride], under setting [1], the inhibition in vivo at 25 mg/kg came out at 96%. The “% Efficacy N.d.” value (drug diet, 0.006 % diet, 7 days) was determined as 91%; the “% Efficacy N.d.” value (drug diet, 0.0125 % diet, 7 days) worked out at 100%; the “% Efficacy N.d.” value (single oral dose, 10 mg/kg) worked out at 51%.

`Cc1ccc([P+](C[P+](c2ccccc2)(c2ccccc2)c2ccccc2)(c2ccccc2)c2ccccc2)cc1` [P,P,P,P',P'-Pentaphenyl P'-p-tolyl-P,P' Methylenediphosphonium Dibromide]: the inhibition in vivo at 0.025 % under setting [2] amounted to 60%. For the same molecule, the inhibition in vivo at 0.05 % (Heligmosomoides polygyrus, po, 168 h, drug diet, 0.05 % diet, 7 days, read-out: % Efficacy N.d.) was 80%. For the same molecule, under setting [1], the inhibition in vivo at 25 mg/kg is 57%, the inhibition in vivo at 50 mg/kg amounted to 64% and the inhibition in vivo at 100 mg/kg worked out at 77%.

Take `CCCCCCC(=P(c1ccccc1)(c1ccccc1)c1ccccc1)[P+](c1ccccc1)(c1ccccc1)c1ccccc1` [Type II, R2 n-Hexyl, X Br]: the inhibition in vivo at 0.006 % under setting [3] was 58%. Also, the inhibition in vivo at 0.0125 % under setting [4] was 79%. In addition, the inhibition in vivo at 0.025 % under setting [2] amounted to 100%. Also, under setting [1], the inhibition in vivo at 25 mg/kg worked out at 39%, the inhibition in vivo at 50 mg/kg amounted to 61% and the inhibition in vivo at 100 mg/kg was found to be 94%.

Regarding `C=CCC(=P(c1ccccc1)(c1ccccc1)c1ccccc1)[P+](c1ccccc1)(c1ccccc1)c1ccccc1` [Type II, R2 Allyl, X Br], the inhibition in vivo at 0.0125 % under setting [4] stood at 33%. Also, the inhibition in vivo at 0.025 % under setting [2] is 100%. In addition, the inhibition in vivo at 10 mg/kg (Heligmosomoides polygyrus, po, single oral dose, 10 mg/kg, read-out: % Efficacy N.d.) was 60%. Further, under setting [1], the inhibition in vivo at 25 mg/kg was determined as 86% and the inhibition in vivo at 50 mg/kg was 100%.

As to `IC(=P(c1ccccc1)(c1ccccc1)c1ccccc1)[P+](c1ccccc1)(c1ccccc1)c1ccccc1` [Type II, R2 I, X I], the inhibition in vivo at 0.006 % under setting [3] is 54%. Under setting [4], the inhibition in vivo at 0.0125 % came to 98%. For the same molecule, under setting [2], the inhibition in vivo at 0.025 % is 100%. Further, under setting [1], the inhibition in vivo at 50 mg/kg is 70%.
